Laboratory results as given in the supplement of paper PMC7017272.
± gives the standard deviation of the averaged measurements.

Assays:
UT-SCC-28 [1] = test: relative IC50 (midpoint of the fitted curve; maximal inhibition may be below 50%); higher = less potent; details: culture condition: embedded in Matrigel; treatment time: 3 days
Summary of the method: (§1)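 Three growth formats were used for HPV-negative HNSCC cell lines in 384-well plates at 500 cells/well: bare plastic, wells coated with Matrigel or Myogel (500 µg/mL), and embedding in Matrigel or Myogel plus rat collagen I. Compounds were added at five 10-fold concentrations, and after 3 days CellTiter-Glo 2.0 luminescence was recorded and normalised to vehicle (0.1% DMSO) and cell-killing control wells. IC50, maximal inhibition and drug sensitivity score came from percent-inhibition dose–response fitting in the FIMM pipeline.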

UT-SCC-106A [2] = test: as above; details: treatment time: 3 days
Summary of the method: as §1

UT-SCC-24B [3] = test: as above; details: treatment time: 3 days
Summary of the method: as §1

UT-SCC-8 [4] = test: as above; details: culture condition: embedded in Myogel + collagen I; treatment time: 3 days
Summary of the method: as §1

UT-SCC-24A [5] = test: maximal % inhibition of viability relative to DMSO; higher = stronger effect; details: treatment time: 3 days
Protocol: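 HNSCC cell lines (500 cells/well, 384-well) were cultured on plastic, on top of (2D) or embedded (3D) in Matrigel or human leiomyoma matrix Myogel (500 ug/mL; Myogel 3D mixed with rat collagen I). Cells were treated for 3 days with 5 ten-fold concentrations of each drug, and viability was read by CellTiter-Glo. Viability was normalised to DMSO (0% inhibition) and 100 uM benzethonium chloride (100% inhibition) controls and fitted with the FIMM DSRT pipeline to give IC50 (nM), maximal % inhibition and the drug sensitivity score (DSS). Suffixes _1/_2/_3 on drug names are replicates.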

UT-SCC-24A [6] = test: drug sensitivity score (DSS); higher = more sensitive; details: treatment time: 3 days
Protocol: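 HNSCC cell lines (500 cells/well, 384-well) were cultured on plastic, on top of (2D) or embedded (3D) in Matrigel or human leiomyoma matrix Myogel (500 ug/mL; Myogel 3D mixed with rat collagen I). Cells were treated for 3 days with 5 ten-fold concentrations of each drug, and viability was read by CellTiter-Glo. Suffixes _1/_2/_3 on drug names are replicates.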

UT-SCC-44 = test: maximal % inhibition of viability relative to DMSO; higher = stronger effect; details: treatment time: 3 days
Protocol: (§2)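 HNSCC cell lines (500 cells/well, 384-well) were cultured on plastic, on top of (2D) or embedded (3D) in Matrigel or human leiomyoma matrix Myogel (500 ug/mL; Myogel 3D mixed with rat collagen I). Cells were treated for 3 days with 5 ten-fold concentrations of each drug, and viability was read by CellTiter-Glo. Viability was normalised to DMSO and benzethonium chloride controls and fitted with the FIMM DSRT pipeline to give IC50 (nM), maximal % inhibition and DSS. Suffixes _1/_2/_3 are replicates. Only inhibition-mode (IC50) fits are kept.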

UT-SCC-28 [7] = test: as above; details: treatment time: 3 days
Protocol: as §2

UT-SCC-73 = test: as above; details: treatment time: 3 days
Protocol: as §2

UT-SCC-42B = test: as above; details: treatment time: 3 days
Protocol: as §2

UT-SCC-40 = test: as above; details: treatment time: 3 days
Protocol: as §2

UT-SCC-42A = test: as above; details: treatment time: 3 days
Protocol: as §2

UT-SCC-81 = test: as above; details: treatment time: 3 days
Protocol: as §2

UT-SCC-14 = test: as above; details: treatment time: 3 days
Protocol: as §2

UT-SCC-106A [8] = test: as above; details: treatment time: 3 days
Protocol: as §2

UT-SCC-24B [9] = test: as above; details: treatment time: 3 days
Protocol: as §2

UT-SCC-8 [10] = test: as above; details: treatment time: 3 days
Protocol: as §2

[11] = culture condition: embedded in Matrigel
[12] = culture condition: on top of Myogel
[13] = culture condition: on top of Matrigel
[14] = culture condition: plastic 2D (no matrix)
[15] = culture condition: embedded in Myogel + collagen I

C#Cc1cccc(Nc2ncnc3cc(OCCOC)c(OCCOC)cc23)c1 [Erlotinib]
relative IC50 (UT-SCC-28 [1]): > 9890 nM | relative IC50 (UT-SCC-106A [2]; [11]): 2070 nM | relative IC50 (UT-SCC-106A [2]; [12]): > 9890 nM | relative IC50 (UT-SCC-24B [3]; [11]): 522 nM | relative IC50 (UT-SCC-24B [3]; [13]): 591 nM | relative IC50 (UT-SCC-24B [3]; [12]): 2490 nM | relative IC50 (UT-SCC-24B [3]; [14]): 227 nM | relative IC50 (UT-SCC-8 [4]): > 9890 nM | maximal % inhibition of viability (UT-SCC-24A [5]; [11]): 65.2 ± 8% | maximal % inhibition of viability (UT-SCC-24A [5]; [15]): 27.5 ± 6.3% | maximal % inhibition of viability (UT-SCC-24A [5]; [13]): 50.9 ± 7.2% | maximal % inhibition of viability (UT-SCC-24A [5]; [12]): 7.53 ± 1.6% | maximal % inhibition of viability (UT-SCC-24A [5]; [14]): 30.6 ± 5% | drug sensitivity score (UT-SCC-24A [6]; [11]): 8.87 ± 3.6 DSS | drug sensitivity score (UT-SCC-24A [6]; [15]): 1.63 ± 1 DSS | drug sensitivity score (UT-SCC-24A [6]; [13]): 5.7 ± 1.7 DSS | drug sensitivity score (UT-SCC-24A [6]; [12]): 0 DSS | drug sensitivity score (UT-SCC-24A [6]; [14]): 3.03 ± 0.93 DSS | maximal % inhibition of viability (UT-SCC-44; [11]): 6.07 ± 5.3% | maximal % inhibition of viability (UT-SCC-44; [15]): 10 ± 9.8% | maximal % inhibition of viability (UT-SCC-44; [13]): 14.1 ± 8.5% | maximal % inhibition of viability (UT-SCC-44; [12]): 20.4 ± 11% | maximal % inhibition of viability (UT-SCC-44; [14]): 15.9 ± 13% | maximal % inhibition of viability (UT-SCC-28 [7]; [11]): 11.3 ± 9.9% | maximal % inhibition of viability (UT-SCC-28 [7]; [15]): 14 ± 5.9% | maximal % inhibition of viability (UT-SCC-28 [7]; [13]): 12.2 ± 3.6% | maximal % inhibition of viability (UT-SCC-28 [7]; [14]): 8.37 ± 7.3% | maximal % inhibition of viability (UT-SCC-73; [11]): 11.2 ± 8.1% | maximal % inhibition of viability (UT-SCC-73; [15]): 13.6 ± 19% | maximal % inhibition of viability (UT-SCC-73; [13]): 13.9 ± 3.5% | maximal % inhibition of viability (UT-SCC-73; [12]): 9.4 ± 5.2% | maximal % inhibition of viability (UT-SCC-73; [14]): 5.97 ± 2.2% | maximal % inhibition of viability (UT-SCC-42B; [11]): 36.7 ± 12% | maximal % inhibition of viability (UT-SCC-42B; [13]): 13.7 ± 13% | maximal % inhibition of viability (UT-SCC-42B; [12]): 4.07 ± 4.7% | maximal % inhibition of viability (UT-SCC-42B; [14]): 4.5 ± 0.98% | maximal % inhibition of viability (UT-SCC-40; [11]): 18.6 ± 8.3% | maximal % inhibition of viability (UT-SCC-40; [15]): 11.2 ± 9.4% | maximal % inhibition of viability (UT-SCC-40; [13]): 7.93 ± 2.4% | maximal % inhibition of viability (UT-SCC-40; [12]): 7.8 ± 4.5% | maximal % inhibition of viability (UT-SCC-40; [14]): 9.97 ± 3.5% | maximal % inhibition of viability (UT-SCC-42A; [11]): 23.9 ± 23% | maximal % inhibition of viability (UT-SCC-42A; [15]): 9.7 ± 4.9% | maximal % inhibition of viability (UT-SCC-42A; [13]): 32.1 ± 18% | maximal % inhibition of viability (UT-SCC-42A; [12]): 12.6 ± 2.3% | maximal % inhibition of viability (UT-SCC-42A; [14]): 20.6 ± 17% | maximal % inhibition of viability (UT-SCC-81; [11]): 77.1 ± 4.2% | maximal % inhibition of viability (UT-SCC-81; [15]): 6.5 ± 5.1% | maximal % inhibition of viability (UT-SCC-81; [13]): 62 ± 6.1% | maximal % inhibition of viability (UT-SCC-81; [12]): 15.7 ± 4.9% | maximal % inhibition of viability (UT-SCC-81; [14]): 12.4 ± 3.9% | maximal % inhibition of viability (UT-SCC-14; [11]): 29.5 ± 7.8% | maximal % inhibition of viability (UT-SCC-14; [15]): 9.87 ± 4.7% | maximal % inhibition of viability (UT-SCC-14; [13]): 9.6 ± 10% | maximal % inhibition of viability (UT-SCC-14; [12]): 11.6 ± 10% | maximal % inhibition of viability (UT-SCC-14; [14]): 8.77 ± 15% | maximal % inhibition of viability (UT-SCC-106A [8]; [11]): 25.1 ± 5.3% | maximal % inhibition of viability (UT-SCC-106A [8]; [15]): 10.4 ± 0.53% | maximal % inhibition of viability (UT-SCC-106A [8]; [13]): 23.6 ± 11% | maximal % inhibition of viability (UT-SCC-106A [8]; [12]): 2.57 ± 2.4% | maximal % inhibition of viability (UT-SCC-106A [8]; [14]): 19.6 ± 7.3% | maximal % inhibition of viability (UT-SCC-24B [9]; [11]): 76.5 ± 0.95% | maximal % inhibition of viability (UT-SCC-24B [9]; [15]): 67.5 ± 6.2% | maximal % inhibition of viability (UT-SCC-24B [9]; [13]): 74.4 ± 3% | maximal % inhibition of viability (UT-SCC-24B [9]; [12]): 59.3 ± 5% | maximal % inhibition of viability (UT-SCC-24B [9]; [14]): 80.9 ± 1.6% | maximal % inhibition of viability (UT-SCC-8 [10]; [11]): 67.3 ± 28% | maximal % inhibition of viability (UT-SCC-8 [10]; [15]): 14.7 ± 22% | maximal % inhibition of viability (UT-SCC-8 [10]; [13]): 55.5 ± 29% | maximal % inhibition of viability (UT-SCC-8 [10]; [12]): 21.4 ± 0.72% | maximal % inhibition of viability (UT-SCC-8 [10]; [14]): 40.5 ± 14%
